Entries after “also recorded” stand apart in the source; their conditions may differ. Structures can show the parent of a compound that is named as a salt.
Experiments:
colo-205 cells = test: DNA content / G1 arrest assay, colo-205 (Acumen); format: cell-based, human; conditions: for 2N cell population / 4N cell population / S cell population: Colo-205 cells
Experimental: (§1) Details for the cellular assays are provided in the supplemental materials. Briefly, image-based assays (Acumen Explorer, TPP LabTech) were used for compound screening. […] After treatment, the cells were washed, fixed and stained with antibodies to detect phosphoproteins and Propidium Iodide to monitor DNA content. The plates were then analyzed on an Acumen Explorer (TTP Labtech). The IC50 and EC50 values are determined by curve fitting to a 4-parameter logistic for each output using ACTIVITY BASE™ software.
(§2) Fixed cells are blocked with 1% bovine serum albumin (BSA, Amersham cat # RPN412V) for 30 minutes. […] Image analysis is based on cellular fluorescent signals for identifying cells in different subpopulations. Assay outputs are a percentage of each identified subpopulations; percent phosphoRB positive, percent 2 N, and percent 4 N. The IC50 and EC50 values are determined by curve fitting to a 4-parameter logistic for each output using ACTIVITY BASE™.

U2OS cells = test: DNA content (cell cycle) in U2OS phenotypic assay; format: cell-based, human
Experimental: U20S cells are cultured in McCoy's 5A modified media (Invitrogen), supplemented with 10% FBS and plated in 96-well, flat-bottom plates at a density of 5,000 cells/well for incubation overnight. Compounds in DMSO stock solution are diluted serially 1:3 in McCoy's 5A media and incubated with cells for 16 hours for multiplexing pCTD/DNA content readouts. Cells are fixed with Prefer (Anatech LTD, MI) for 30 minutes at room temperature and permeated with 0.1% Triton-X 100 in PBS or cold methanol (-20°C) for 15 minutes, respectively. After blocking with 1% BSA/PBS for 30 min, cells are incubated with primary antibody (CTD p-Ser2, Covance) at 1:1000 dilution in 1% BSA/PBS containing 50 ug/ml RNAse ([…], Sigma) at 4°C overnight. […] Table S1 and Figure S1.

pCTD (pSer2) U2OS = test: Cellular assay for inhibition of RNA polymerase CTD (Ser2) phosphorylation (pCTD), U2OS; format: cell-based; conditions: Homo sapiens, n=1
Experimental: U20S cells are cultured in McCoy’s 5A modified media (Invitrogen), supplemented with 10% FBS and plated in 96-well, flat-bottom plates at a density of 5,000 cells/well for incubation overnight. Compounds in DMSO stock solution are diluted serially 1:3 in McCoy’s 5A media and incubated with cells for 16 hours for multiplexing pCTD/DNA content readouts. Cells are fixed with Prefer (Anatech LTD, MI) for 30 minutes at room temperature and permeated with 0.1% Triton-X 100 in PBS or cold methanol (-20°C) for 15 minutes, respectively. After blocking with 1% BSA/PBS for 30 min, cells are incubated with primary antibody (CTD p-Ser2, Covance) at 1:1000 dilution in 1% BSA/PBS containing 50 ug/ml RNAse (R6513, Sigma) at 4°C overnight. […] The IC50 and EC50 values are determined by curve fitting to a 4-parameter logistic for each output using ACTIVITY BASE™.
The assay detects CDK9 activity through both the inhibition of phosphorylation ser2 of the C-terminal repeat domain (pCTD) of RNA polymerase II, and a CDK9-modulated G2/M arrest [accumulation of cells with 4N DNA content]

[1] = Tolerability in colo-205 xenograft-bearing mice; format: in vivo; conditions: 56-day schedules
Experimental: (§3) All animal studies were performed in accordance with American Association for Laboratory Animal Care institutional guidelines, and all protocols were approved by the Eli Lilly and Company Animal Care and Use Committee. Tumor cell lines were grown, harvested, and resuspended in a 1:1 mixture of serum-free media and matrigel (BD Biosciences), and 5 × 10^6 cells were injected subcutaneously in the rear flank of 5-to-6-week-old CD1 nu/nu female mice (Charles River Laboratories for MV4-11, mice from Harlan Laboratories for others). Tumor volume was estimated by using the formula: vol = l × w^2 × 0.536, where one and w are perpendicular measured diameters, and one is greater than or equal to w.
When the mean tumor volume was approximately 150–300 mm^3, animals were randomized by tumor volume and the compound was administered. […]. Gemcitabine was formulated in saline and administered by intraperitoneal injection. Tumor volume and body weight were measured twice weekly. When tumors were collected for biomarker analysis, the animals were asphyxiated with CO2 and the xenograft tumors excised, flash frozen in liquid nitrogen, and stored at −80 °C until analyzed. […] The log volume data were analyzed with a 2-way repeated measures analysis of variance by time and treatment using the MIXED procedure in SAS software (version 9.2). […]

cRaf = cRaf (Homo sapiens, UniProt P04049); test: Biochemical kinase profiling cRaf
[2] = tested on: Rb-proficient MDA-MB-231 breast cancer cells; test: Flow cytometry cell cycle distribution, MDA-MB-231; format: cell-based, human
Experimental: (§4) Flow cytometry was also used to determine cell cycle distribution in cell lines, as described in the supplemental materials.
(§5) Flow cytometry was used to determine cell cycle distribution in cell lines. Cells were cultured in growth media under subconfluent conditions and treated with indicated concentrations of compound solubilized in DMSO for 24 hours at 37°C/5% CO2. After treatment, cells were collected, washed once with 4° C PBS, and fixed with 70% ethanol/30% water at -20 °C for 30 minutes. Cells were then collected by centrifugation, washed once with PBS, and stained for 30 minutes at room temperature by the addition of 1 mL of propidium iodide/Triton X-100 staining solution (20µg/mL of propidium iodide, 200µg/mL DNase-free RNase A, 0.1%(v/v) Triton x-100). Cell cycle analysis was performed using a Cytomics™ FC500 (Coulter); data were analyzed using ModFit v3.1 software (Verity).

ERK1 = ERK1 (Homo sapiens, UniProt P27361); test: Biochemical kinase profiling ERK1
Aurora A = Aurora A (Homo sapiens, UniProt O14965); test: Biochemical kinase profiling Aurora A
[3] = PK/PD model, colo-205 bearing mice, continuous dosing ref 37; cited from earlier work
HIPK2 = molecular target: T1, HIPK2 (Homo sapiens, UniProt Q9H2X6); test: Millipore (UBI) kinase panel HIPK2; format: biochemical; conditions: generated at millipore (UBI) kinase panel
T1 construct: purchased Millipore/UBI

[4] = tested on: p-Rb, TopoIIα, pHH3 in colo-205 xenografts; conditions: 24 h after oral dosing
[5] = tested on: Colo-205 colorectal xenografts; test: Subcutaneous colo-205 xenograft antitumor activity; format: in vivo, mice; conditions: for Percent delta T/C, percent regression: Colo-205 colorectal
Experimental: as §3, with “others).” for “others). Tumor volume was estimated by using the formula: vol = l × w^2 × 0.536, where one and w are perpendicular measured diameters, and one is greater than or equal to w.”
(§6) When the mean tumor volume was approximately 150–300 mm^3, animals were randomized by tumor volume and the compound was administered. […] Gemcitabine was formulated in saline and administered by intraperitoneal injection. Tumor volume and body weight were measured twice weekly. When tumors were collected for biomarker analysis, the animals were asphyxiated with CO2 and the xenograft tumors excised, flash frozen in liquid nitrogen, and stored at −80 °C until analyzed. For analysis, tumor volume data were transformed to a log scale to equalize variance across time and treatment groups. The log volume data were analyzed with a 2-way repeated measures analysis of variance by time and treatment using the MIXED procedure in SAS software (version 9.2). The correlation model for the repeated measures was spatial power. Treated groups are compared to the control group at each time point.

AKT1 = AKT1 (Homo sapiens, UniProt P31749); test: Biochemical kinase profiling AKT1
pERK A375 = test: pERK inhibition, A375; format: cell-based; conditions: Homo sapiens, A-375; read-out: pERK inh. A375 IC50
[6] = tested on: Rb-deficient MDA-MB-468 breast cancer cells; test: Flow cytometry cell cycle distribution, MDA-MB-468; format: cell-based, human; conditions: MDA-MB-468, concentrations up to 2,500 nmol/L
[7] = tested on: MV4-11 acute myelocytic leukemia (AML) cells; test: Flow cytometry cell cycle distribution, MV4-11; format: cell-based, human
Experimental: as §4, §5

PLK3 = PLK3 (Homo sapiens, UniProt Q9H4B4); test: Biochemical kinase profiling PLK3
pRb (pSer780) colo-205 = test: Cellular assay for inhibition of p-Rb (Ser780), colo-205 (Acumen); format: cell-based; conditions: Homo sapiens, Fig. 2a, as given in discussion
Experimental: as §1, §2

[8] = design: method as in manuscript in preparation; conditions: ref manuscript in preparation; cited from earlier work
TRKA = molecular target: T2, TRKA (Homo sapiens, UniProt P04629); test: Millipore (UBI) kinase panel TRKA; format: biochemical; conditions: generated at millipore (UBI) kinase panel
T2 construct: purchased Millipore/UBI

PLK1 = PLK1 (Homo sapiens, UniProt P53350); test: Biochemical kinase profiling PLK1
DRAK1 = molecular target: T3, DRAK1 (Homo sapiens, UniProt Q9UEE5); test: Millipore (UBI) kinase panel DRAK1; format: biochemical; conditions: generated at millipore (UBI) kinase panel
T3 construct: purchased Millipore/UBI

pERK HCT116 = test: pERK inhibition, HCT116; format: cell-based; conditions: Homo sapiens, HCT-116; read-out: pERK inh. HCT116 IC50
Aurora B = Aurora B (Homo sapiens, UniProt Q96GD4); test: Biochemical kinase profiling Aurora B
[9] = phase 1 study in advanced cancer patients ref 38, 39; cited from earlier work
bRaf = bRaf (Homo sapiens, UniProt P15056); test: Biochemical kinase profiling bRaf
Jeko1 MCL xenografts = test: Subcutaneous Jeko1 xenograft antitumor activity; format: in vivo, mice; conditions: 100 mg/kg, day 45
Experimental: as §3, with “others).” for “others). Tumor volume was estimated by using the formula: vol = l × w^2 × 0.536, where one and w are perpendicular measured diameters, and one is greater than or equal to w.”
as §6, with “Treated groups are compared to the control group at each time point.” left out

MV4-11 AML xenografts = test: Subcutaneous MV4-11 xenograft antitumor activity; format: in vivo, mice; conditions: 50 mg/kg qdx21, day 49
Experimental: as §3, with “others).” for “others). Tumor volume was estimated by using the formula: vol = l × w^2 × 0.536, where one and w are perpendicular measured diameters, and one is greater than or equal to w.”
as §6, with “Treated groups are compared to the control group at each time point.” left out

H460 lung xenografts = test: Subcutaneous H460 xenograft antitumor activity; format: in vivo, mice; conditions: 50 mg/kg qdx21, day 35
Experimental: as §3, with “others).” for “others). Tumor volume was estimated by using the formula: vol = l × w^2 × 0.536, where one and w are perpendicular measured diameters, and one is greater than or equal to w.”
as §6, with “Treated groups are compared to the control group at each time point.” left out

[10] = tested on: U87 MG glioblastoma xenografts; test: Subcutaneous U87 MG xenograft antitumor activity; format: in vivo, mice; conditions: 50 mg/kg qdx21, day 31
Experimental: as §3, with “others).” for “others). Tumor volume was estimated by using the formula: vol = l × w^2 × 0.536, where one and w are perpendicular measured diameters, and one is greater than or equal to w.”
as §6, with “Treated groups are compared to the control group at each time point.” left out

[11] = tested on: RRM1 expression in Calu-6 xenografts; test: Western blot of RRM1 in Calu-6 xenograft tumors; format: in vivo, mice; conditions: 150 mg/kg dose, Calu-6 tumors 24 h after last dose
Experimental: as §6

Calu-6 lung xenografts = test: Subcutaneous Calu-6 xenograft antitumor activity; format: in vivo, mice; conditions: 50 mg/kg LY2835219 oral, 60 or 150 mg/kg gemcitabine i.p.
Experimental: as §3, with “others).” for “others). Tumor volume was estimated by using the formula: vol = l × w^2 × 0.536, where one and w are perpendicular measured diameters, and one is greater than or equal to w.”
as §6, with “Treated groups are compared to the control group at each time point.” left out

[12] = colo-205 xenograft dose response

Chain of Aurora B (Q96GD4 whole entry): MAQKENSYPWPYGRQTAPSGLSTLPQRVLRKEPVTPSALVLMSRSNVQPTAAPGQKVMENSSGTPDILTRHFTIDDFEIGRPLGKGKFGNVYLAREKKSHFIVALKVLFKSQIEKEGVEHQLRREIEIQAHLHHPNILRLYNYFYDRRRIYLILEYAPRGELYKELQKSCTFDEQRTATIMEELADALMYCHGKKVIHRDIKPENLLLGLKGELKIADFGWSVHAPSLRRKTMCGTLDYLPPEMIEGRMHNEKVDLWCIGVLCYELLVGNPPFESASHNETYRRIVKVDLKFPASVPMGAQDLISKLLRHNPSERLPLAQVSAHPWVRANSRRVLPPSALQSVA
Chain of PLK1 (P53350 whole entry): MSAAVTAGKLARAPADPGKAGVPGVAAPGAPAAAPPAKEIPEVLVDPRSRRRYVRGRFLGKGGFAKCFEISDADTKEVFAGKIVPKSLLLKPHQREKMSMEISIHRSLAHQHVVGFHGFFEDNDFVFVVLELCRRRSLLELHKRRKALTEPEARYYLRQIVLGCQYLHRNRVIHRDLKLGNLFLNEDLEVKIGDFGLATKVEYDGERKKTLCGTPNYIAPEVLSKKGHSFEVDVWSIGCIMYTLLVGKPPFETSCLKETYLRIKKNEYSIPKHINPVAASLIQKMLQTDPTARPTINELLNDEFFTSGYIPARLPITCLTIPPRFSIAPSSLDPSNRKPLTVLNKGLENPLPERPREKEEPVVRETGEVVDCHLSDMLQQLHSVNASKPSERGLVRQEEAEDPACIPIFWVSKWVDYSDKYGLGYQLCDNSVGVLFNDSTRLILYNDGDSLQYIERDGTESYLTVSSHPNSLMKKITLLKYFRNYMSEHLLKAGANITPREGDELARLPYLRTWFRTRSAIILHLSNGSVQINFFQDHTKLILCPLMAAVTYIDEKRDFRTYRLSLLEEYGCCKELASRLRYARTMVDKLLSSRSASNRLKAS
Chain of Aurora A (O14965 whole entry): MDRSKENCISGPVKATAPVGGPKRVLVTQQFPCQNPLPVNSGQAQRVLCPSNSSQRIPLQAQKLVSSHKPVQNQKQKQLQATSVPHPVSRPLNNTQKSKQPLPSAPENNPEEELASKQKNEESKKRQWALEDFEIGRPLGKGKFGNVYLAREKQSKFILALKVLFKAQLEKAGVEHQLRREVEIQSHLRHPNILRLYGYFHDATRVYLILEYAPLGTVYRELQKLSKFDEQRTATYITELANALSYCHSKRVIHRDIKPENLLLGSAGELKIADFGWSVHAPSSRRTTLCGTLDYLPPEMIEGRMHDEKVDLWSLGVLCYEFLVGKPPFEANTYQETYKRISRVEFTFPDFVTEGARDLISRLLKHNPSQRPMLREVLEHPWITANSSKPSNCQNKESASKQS
Chain of cRaf (P04049 whole entry): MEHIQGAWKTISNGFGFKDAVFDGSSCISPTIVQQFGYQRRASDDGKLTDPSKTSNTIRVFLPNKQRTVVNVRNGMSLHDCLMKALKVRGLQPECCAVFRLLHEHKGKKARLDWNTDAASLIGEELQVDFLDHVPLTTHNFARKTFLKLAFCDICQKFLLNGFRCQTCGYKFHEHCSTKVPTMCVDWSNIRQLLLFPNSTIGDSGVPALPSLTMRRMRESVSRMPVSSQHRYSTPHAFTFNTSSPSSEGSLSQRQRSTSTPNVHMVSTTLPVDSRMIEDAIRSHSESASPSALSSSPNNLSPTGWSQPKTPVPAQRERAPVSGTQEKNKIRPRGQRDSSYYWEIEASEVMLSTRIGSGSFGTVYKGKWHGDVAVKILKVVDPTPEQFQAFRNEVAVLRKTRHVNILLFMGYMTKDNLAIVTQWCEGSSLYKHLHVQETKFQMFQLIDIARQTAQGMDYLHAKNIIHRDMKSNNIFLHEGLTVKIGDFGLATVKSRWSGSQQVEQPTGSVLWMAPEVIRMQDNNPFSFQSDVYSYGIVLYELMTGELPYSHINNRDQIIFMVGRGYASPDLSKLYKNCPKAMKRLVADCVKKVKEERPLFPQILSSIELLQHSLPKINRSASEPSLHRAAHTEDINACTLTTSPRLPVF
Chain of PLK3 (Q9H4B4 whole entry): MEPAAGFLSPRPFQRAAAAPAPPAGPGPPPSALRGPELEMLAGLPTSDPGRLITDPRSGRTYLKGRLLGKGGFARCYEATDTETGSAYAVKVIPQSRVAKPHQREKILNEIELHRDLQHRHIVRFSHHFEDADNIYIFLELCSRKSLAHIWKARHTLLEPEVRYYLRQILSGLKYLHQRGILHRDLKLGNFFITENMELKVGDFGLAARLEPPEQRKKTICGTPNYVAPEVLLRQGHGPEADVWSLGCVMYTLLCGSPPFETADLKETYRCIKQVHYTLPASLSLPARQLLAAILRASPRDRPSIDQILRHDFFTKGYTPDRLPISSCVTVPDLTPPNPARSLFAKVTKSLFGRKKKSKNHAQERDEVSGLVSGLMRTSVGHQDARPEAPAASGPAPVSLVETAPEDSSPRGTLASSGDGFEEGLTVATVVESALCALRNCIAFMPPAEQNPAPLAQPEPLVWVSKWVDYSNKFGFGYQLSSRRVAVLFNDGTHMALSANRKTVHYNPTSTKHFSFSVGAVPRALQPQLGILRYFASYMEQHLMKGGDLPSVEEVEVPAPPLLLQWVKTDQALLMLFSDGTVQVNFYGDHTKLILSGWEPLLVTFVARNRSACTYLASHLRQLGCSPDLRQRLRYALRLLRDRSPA
Chain of ERK1 (P27361 whole entry): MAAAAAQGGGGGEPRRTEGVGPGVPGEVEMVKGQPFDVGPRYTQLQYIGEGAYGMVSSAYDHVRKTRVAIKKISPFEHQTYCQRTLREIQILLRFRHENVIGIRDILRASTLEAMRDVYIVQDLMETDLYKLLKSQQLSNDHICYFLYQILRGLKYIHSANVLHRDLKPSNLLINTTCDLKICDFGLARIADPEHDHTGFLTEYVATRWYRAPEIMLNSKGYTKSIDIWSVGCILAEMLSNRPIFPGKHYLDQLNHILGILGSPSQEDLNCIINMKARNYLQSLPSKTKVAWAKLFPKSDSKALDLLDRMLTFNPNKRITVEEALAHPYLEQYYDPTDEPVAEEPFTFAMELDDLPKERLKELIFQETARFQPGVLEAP
T2 sequence (P04629 33-796): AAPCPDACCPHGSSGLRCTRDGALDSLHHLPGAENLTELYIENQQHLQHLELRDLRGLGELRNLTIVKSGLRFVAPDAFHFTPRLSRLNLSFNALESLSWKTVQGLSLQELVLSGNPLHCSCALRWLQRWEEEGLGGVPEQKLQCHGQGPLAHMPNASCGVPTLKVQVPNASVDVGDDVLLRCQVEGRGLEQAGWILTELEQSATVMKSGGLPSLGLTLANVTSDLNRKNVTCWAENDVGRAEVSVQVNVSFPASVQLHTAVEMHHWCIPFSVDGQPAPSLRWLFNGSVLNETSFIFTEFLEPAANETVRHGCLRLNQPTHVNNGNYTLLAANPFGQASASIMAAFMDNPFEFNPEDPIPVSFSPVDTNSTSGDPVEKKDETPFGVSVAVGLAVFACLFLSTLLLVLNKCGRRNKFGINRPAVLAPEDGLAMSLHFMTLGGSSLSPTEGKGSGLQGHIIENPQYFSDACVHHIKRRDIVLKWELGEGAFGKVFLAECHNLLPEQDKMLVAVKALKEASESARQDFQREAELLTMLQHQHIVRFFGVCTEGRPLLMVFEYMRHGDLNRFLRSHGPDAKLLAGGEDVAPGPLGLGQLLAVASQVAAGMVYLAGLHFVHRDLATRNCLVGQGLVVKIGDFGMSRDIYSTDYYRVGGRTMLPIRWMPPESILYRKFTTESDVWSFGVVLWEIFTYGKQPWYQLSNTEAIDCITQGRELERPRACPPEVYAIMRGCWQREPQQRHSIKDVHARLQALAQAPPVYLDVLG
Chain of AKT1 (P31749 whole entry): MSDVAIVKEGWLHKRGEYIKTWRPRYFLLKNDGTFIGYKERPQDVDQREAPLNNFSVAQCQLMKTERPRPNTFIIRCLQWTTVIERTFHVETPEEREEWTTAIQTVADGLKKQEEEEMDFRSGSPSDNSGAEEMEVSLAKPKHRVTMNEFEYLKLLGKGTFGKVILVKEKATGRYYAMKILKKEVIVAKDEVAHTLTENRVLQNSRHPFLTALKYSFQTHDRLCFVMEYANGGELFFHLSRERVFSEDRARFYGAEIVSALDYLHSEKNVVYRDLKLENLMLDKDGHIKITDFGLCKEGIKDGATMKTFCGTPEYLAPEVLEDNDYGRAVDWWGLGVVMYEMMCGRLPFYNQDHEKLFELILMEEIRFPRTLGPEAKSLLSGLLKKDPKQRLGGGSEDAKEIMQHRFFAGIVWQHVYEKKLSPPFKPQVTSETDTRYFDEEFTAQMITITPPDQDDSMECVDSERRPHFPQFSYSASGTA
T3 sequence (Q9UEE5 whole entry): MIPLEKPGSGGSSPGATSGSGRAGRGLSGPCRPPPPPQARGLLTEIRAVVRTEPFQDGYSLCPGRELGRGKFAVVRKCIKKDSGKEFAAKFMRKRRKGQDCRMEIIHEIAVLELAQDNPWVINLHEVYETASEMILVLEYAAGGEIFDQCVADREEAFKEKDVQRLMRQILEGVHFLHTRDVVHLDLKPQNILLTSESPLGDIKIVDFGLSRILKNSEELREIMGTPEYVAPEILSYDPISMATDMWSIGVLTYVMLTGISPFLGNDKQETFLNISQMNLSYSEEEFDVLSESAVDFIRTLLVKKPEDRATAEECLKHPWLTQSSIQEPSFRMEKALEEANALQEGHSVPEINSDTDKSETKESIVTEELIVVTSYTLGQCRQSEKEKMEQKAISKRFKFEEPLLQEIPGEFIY

CN1CC[C@H](c2c(O)cc(O)c3c(=O)cc(-c4ccccc4Cl)oc23)[C@H](O)C1 [Flavopiridol]
2N cell population (colo-205 cells; 2.2 µM): 54%
4N cell population (colo-205 cells; 2.2 µM): 44%
S cell population (colo-205 cells; 2.2 µM): 2%
2N cell population (colo-205 cells; 6.6 µM): 50%
4N cell population (colo-205 cells; 6.6 µM): 49%
S cell population (colo-205 cells; 6.6 µM): 1%
EC50 (colo-205 cells; Homo sapiens, COLO 205, read-out: G1 arrest in Colo205 (increase in cells with 2N DNA content) EC50): > 20 µM
2N cell population (U2OS cells; 2.2 µM): 22%
4N cell population (U2OS cells; 2.2 µM): 74%
S cell population (U2OS cells; 2.2 µM): 4%
2N cell population (U2OS cells; 6.6 µM): 23%
4N cell population (U2OS cells; 6.6 µM): 72%
S cell population (U2OS cells; 6.6 µM): 5%
IC50 (pCTD (pSer2) U2OS): 0.147 µM

CCN1CCN(Cc2ccc(Nc3ncc(F)c(-c4cc(F)c5nc(C)n(C(C)C)c5c4)n3)nc2)CC1 [LY2835219, [5-(4-Ethyl-piperazin-1-ylmethyl)-pyridin-2-yl]-[5-fluoro-4-(7-fluoro-3-isopropyl-2-methyl-3H-benzoimidazol-5-yl)-pyrimidin-2-yl]-amine]
histopathologic evaluation of intestinal tissue (jejunum, ileum, cecum) ([1]; days 41 and 69): no significant changes in intestinal tissue
hematologic changes ([1]; not dose-limiting): decreases in red cell mass and moderately reduced lymphocyte count
IC50 (cRaf): > 20 µM
G1 arrest in Rb-proficient cells [2]: induced a G1 arrest
IC50 (ERK1): > 20 µM
IC50 (Aurora A): > 20 µM
activity against Aurora A (Aurora A): Complete lack of activity
minimum steady state trough plasma concentration required for robust efficacy [3]: approximately 200 ng/mL; also recorded: approximately 400 nM
IC50 (HIPK2): 0.031 µM
4N cell population (colo-205 cells; 2.2 µM): 16%
S cell population (colo-205 cells; 2.2 µM): 0%
2N cell population (colo-205 cells; 6.6 µM): 75%
TED70 for in vivo inhibition of TopoII [4, 12]: 14 mg/kg
TED70 for in vivo inhibition of pRb [4, 12]: 14 mg/kg
doses at which p-Rb, TopoIIα and pHH3 were all significantly inhibited ([4]; colo-205 xenografts): ≥ 12.5 mg/kg
minimally efficacious dose for tumor growth inhibition ([5]; colo-205 xenografts): 12.5 mg/kg
IC50 (AKT1): > 20 µM
IC50 (pERK A375): > 20 µM
2N cell population (U2OS cells; 2.2 µM): 56%
S cell population (U2OS cells; 2.2 µM): 6%
2N cell population (U2OS cells; 6.6 µM): 44%
S cell population (U2OS cells; 6.6 µM): 7%
G1 arrest in Rb-deficient cells [6]: no such effect
compound concentration up to which G1 arrest was sustained ([7]; MV4-11): up to 5,000 nmol/L
concentration at which maximum G1 arrest was seen ([7]; MV4-11, 24 h): ≥ 320 nmol/L
IC50 (PLK3): > 20 µM
IC50 (pRb (pSer780) colo-205): ~0.1 µM
ability to cross the blood–brain barrier [8]: effectively cross the blood–brain barrier
IC50 (TRKA): 1.03 µM
IC50 (PLK1): > 20 µM
activity against PLK1 (PLK1): Complete lack of activity
IC50 (DRAK1): 0.659 µM
IC50 (pERK HCT116): > 20 µM
IC50 (Aurora B): > 20 µM
activity against Aurora B (Aurora B): Complete lack of activity
mean maximum steady state plasma concentration [9]: 562 nM
IC50 (bRaf): 6.33 µM

CC(=O)c1c(C)c2cnc(Nc3ccc(N4CCNCC4)cn3)nc2n(C2CCCC2)c1=O [PD0332991, 6-Acetyl-8-cyclopentyl-5-methyl-2-[[5-(1-piperazinyl)-2-pyridinyl]amino] pyrido[2,3-d] pyrimidin-7 (8H)-one]
Percent delta T/C, percent regression (Jeko1 MCL xenografts): 12%
Percent delta T/C, percent regression (MV4-11 AML xenografts): 16%
Percent delta T/C, percent regression ([5]; 50 mg/kg (schedule not given), day 39): 7%
Percent delta T/C, percent regression ([5]; 100 mg/kg qdx21, day 35): −1%
Percent delta T/C, percent regression (H460 lung xenografts): 60%
Percent delta T/C, percent regression [10]: 26%

Nc1ccn([C@@H]2O[C@H](CO)[C@@H](O)C2(F)F)c(=O)n1 [gemcitabine, 2′,2′-difluorodeoxycytidine hydrochloric salt]
increase of RRM1 compared to vehicle [11]: 75%
tumor growth inhibition, compound alone (Calu-6 lung xenografts): active in inhibiting tumor growth

Source: article PMC4169866 (Investigational New Drugs, 2014)
